# Measurements reported in US20210196724A1, “BIARYL COMPOSITIONS AND METHODS FOR MODULATING A KINASE CASCADE” (Athenex, Inc., priority 2016, published 2021).
# Legend:
# [1] = test system: U87-luc human glioblastoma subcutaneous xenograft; assay: U87-luc human glioblastoma subcutaneous xenograft tumor model; type: in vivo, athymic nude mice
# From the text: The anti-tumor activity of Compound 121, as a single agent, was studied in a U87-luc human glioblastoma subcutaneous xenograft tumor model. Significant endpoints were used to assess the treatment effects on subcutaneous tumor growth, as determined by tumor growth inhibition.
# Human glioblastoma U87 cells (1×10^6 cells) were implanted into the right flank of athymic nude mice via subcutaneous injection. Dosing was initiated when the average tumor size reached 90-100 mm^3, which was designated as Day 1.
# Compound 121 was dosed at 5 mg/kg once per day through Days 1-7 and dosed 2.5 mg/kg once per day through Days 15-21. A control group of mice (N=7) was administered a vehicle per the same schedule. Tumor volume was determined every 2 to 3 days via bidimensional caliper measurements. Body weight and general observations were recorded.
# The mice were euthanized once the tumor reached 2000 mm^3 in volume.
# Tumor growth inhibition (TGI) was calculated with the following formula:
# TGI=(1−(mean volume of treated tumors)/(mean volume of control tumors))×100.
# [2] = test system: GL261 glioblastoma cells injected intra-cranially; assay: GL261 murine model of glioblastoma (intra-cranial), survival; type: in vivo, C57BL/6 mice; details: orally once per day at 1 mg/kg for 45 days
# Description: The anti-tumor activity of Compound 121, as a single agent, was studied in the GL261 murine model of human glioblastoma. Murine GL261 glioblastoma cells were injected intra-cranially into syngeneic, immune-competent hosts (C57BL/6). In order for oral therapeutics to be effective, it is required that the therapeutic be able to cross the blood-brain barrier in order to achieve sufficient levels in the brain to exert an anti-tumor effect. Survival was the major endpoint for the study. The mice either succumbed to the tumor or were euthanized based on severity of tumor-dependent morbidity. Mice that achieved long-term survival (>80 days) were re-challenged with a sub-cutaneous injection of GL261 cells to assess the development of a durable immune response to GL261. Mice that underwent the re-challenge phase were not treated with Compound 121.
# GL261 cells (1×10^5 cells) were implanted into the brain of a C57BL/6 host using stereotactice injection. Compound 121 was dosed orally once per day at 1 mg/kg (N=10) for 45 days beginning 3 days post-tumor cell implantation. Compound Y was dosed orally once per day at 5 mg/kg (N=10) for 45 days beginning 3 days post-tumor implantation. A vehicle was administered to a control group of mice (N=10) per the same schedule.
# Mice were monitored for signs of tumor dependent morbidity, including head tilt, hunching, ataxia, and limb weakness. Mice were euthanized when cumulative signs of high tumor burden were evident.
# U87 cells = assay: MTT cell growth inhibition (GI50), U87; type: cell-based, human; details: 3 days
# Description: The drug concentration required to block net cell growth by 50% relative to a control sample is measured as the GI50. The GI50s for several of the compounds of the application were assayed as described.
# MTT assay: U87 and GL261 cells were seeded in 96-well plate (6×10^3 cells in 100 μl of DMEM+10% FBS media per well) and incubated overnight at 37° C. with 5% CO2. All test compounds were diluted (10 point 2-fold serial dilution) in a separate 96-well plate to yield 10× of final concentrations (0.5-256 nM). A volume of 11 μl of 10× dilutions was added to appropriate wells (n=3). To value (reflecting the starting number of cells upon drug treatment) was determined by following steps as described below. After 3 days incubation at 37° C. with 5% CO2, 10 μl of MTT solution (5 mg/ml in PBS) was added to each well and plates were incubated at 37° C. for 3 h to allow MTT to form formazan crystals by reacting with metabolically active cells. 100 μl of 20% SDS was added to each well and plates were incubated overnight at 37° C. with 5% CO2. Afterward, OD570 was measured using microplate reader. The cell growth percentage of control was calculated according to percentage of control=(T−T0)/(C−T0)×100% or OD value of the test well exposure to test drug—OD value at time zero/(OD of the control well without drug treatment−OD value at time zero)×100%. Growth inhibition curves and GI50 were determined using GraphPad Prism 5 software.
# [3] = Brain permeability (brain:plasma ratio); type: in vivo; details: read-out: Brain:Plasma (B:P) Average
# Description: Brain permeability can be measured by various methods known in the art. For example, brain permeability can be measured by calculating the ratio between the concentration of a compound of the application in the brain and the concentration of the compound in the plasma (i.e., BP ratio). In one aspect, a compound of the application has a B:P ratio of at least 1.0, 1.1, 1.2, 1.3, 1.4, 1.5, 1.6, 1.7, 1.8, 1.9, or 2.0 at 1 hour after administration of the compound to a subject. In one aspect, a compound of the application has a B:P ratio of at least 1.5, 1.6, 1.7, 1.8, 1.9, or 2.0 at 1 hour after administration of the compound to a subject. In one aspect, a compound of the application has a B:P ratio of at least 1.4, 1.5, 1.6, 1.7, 1.8, 1.9, 2.0, 2.1, 2.2, or 2.3 at 2 hours after administration of the compound to a subject. In one aspect, a compound of the application has a B:P ratio of at least 1.9, 2.0, 2.1, 2.2, or 2.3 at 2 hours after administration of the compound to a subject. In one aspect, a compound of the application has a B:P ratio of at least 1.7, 1.8, 1.9, 2.0, 2.1, 2.2, 2.3, 2.4, or 2.5 at 4 hours after administration of the compound to a subject. In one aspect, a compound of the application has a B:P ratio of at least 2.2, 2.3, 2.4, or 2.5 at 4 hours after administration of the compound to a subject.
# [4] = Day 12, orally dosed 5 mg/kg once per day Days 1-7
smiles,measurement,setting,value
Cc1cc(N2CCOC[C@@H]2C)ccc1-c1ccc(CC(=O)NCc2ccc(F)cc2)nc1 [Compound 121],Tumor growth (tumor volumes in individual mice over time),"[1]; 5 mg/kg once per day Days 1-7, 2.5 mg/kg once per day Days 15-21",repressed tumor growth
same,Mean tumor volume compared to the control group,"[1]; Day 12, P<0.05",significantly reduced
same,% TGI (tumor growth inhibition),[1]; [4],76.8%
same,Mean Tumor Volume ± SEM,[1]; [4],442.9 ± 67.2 mm3
same,Time to terminal sacrifice (based on tumor volume) compared to control,"[1]; P<0.05, 5 mg/kg Days 1-7, 2.5 mg/kg Days 15-21",significantly extended
same,Survival compared to vehicle control,[2],significanly extended survival
same,Survival beyond 80 days (long term survival),[2]; N=10,2 of the 10
same,GI50,U87 cells,5.2 nM
same,Kp at 0.25 h,[3]; time point 0.25 h,1.08
same,Kp at 0.5 h,[3]; time point 0.5 h,1.37
same,Kp at 1 h,[3]; time point 1 h,1.53
same,Kp at 2 h,[3]; time point 2 h,1.93
same,Kp at 4 h,[3]; time point 4 h,2.29
same,Kp at 6 h,[3]; time point 6 h,1.66
same,Kp at 8 h,[3]; time point 8 h,1.24
